Consider one substance from patent US5681723A, “Mutant interleukin 6 with improved biological activity over wild interleukin 6” (Instituto di Ricerche di Biologia Molecolare P. Angelett …, priority 1992, dated 1997).

One assay deals with soluble hIL6 receptor. Description: hIL-6R binding (affinity for the soluble hIL6 receptor). Conditions: mutant hIL6 produced in E. coli. The arrangement: species or system human. The text has this: Affinity for the soluble hIL6 receptor of mutant hIL6 produced in E. coli
Assay [1] deals with murine hybridoma cell line 7TD1. As to the kind of experiment: HGF (Hybridoma Growth Factor) assay, growth of hIL-6 dependent hybridoma 7TD1. The class given is cell-based. To be noted: murine hybridoma 7TD1, HGF assay. How it is done: Mutant interleukin 6 according to the present invention has also been tested using the classical HGF (Hybridoma Growth Factor) assay for its ability to stimulate growth of the hIL-6 dependent murine hybridoma cell line 7TD1 (Van Snick, J., Cayphas, S., Vink, A., Uyttenhove, C., Coulie, P. G. and Simpson, R. J. (1986) Proc. Natl. Acad. Sci. USA, 83, 9679-9683). The assay was performed taking into account the indications of Fiorillo, M. T., Cabibbo, A., Iacopetti, P., Fattori, E. and Ciliberto, G. (1992) Eur. J. Immunol. 22, 2609-2615.

Assay [2] concerns human hepatoma cell line Hep3B. As to the kind of experiment: CRP-CAT transcription induction assay in transfected human hepatoma Hep3B cells. The class given is cell-based. Conditions: ratio of amounts of wild type hIL-6 and mutant giving half maximal stimulation of CRP-CAT in Hep3B cells; wild type = 100%. How it is done:
The biological activity of the mutant of interest was determined first of all on cells of human origin. The activity of hIL-6 on human cells was assayed for its ability to enhance transcription from acute phase gene promoters in cells of hepatic origin (Morrone, G., Ciliberto, G., Oliviero, S., Arcone, R., Dente, L., Content, J. and Cortese, R. (1988) J. Biol. Chem. 263, 12554-12558). […]
In particular, human Hep3B cells were transfected with 45-50/ ug of the plasmid -219 CRP-CAT containing the IL-6 responsive element of the CRP promoter gene. […] After 16-18 hours, precipitates were removed, cells were trypsinized, pooled, counted and plated in equal number (10^5 to 3×10^5) in 5 cm diameter petri dishes; 7-9 hours after plating, cells were induced for 36-40 hours with increasing amounts of mutant or wild-type hIL-6. […]
The assay was carried out in duplicate (in triplicate in case of wild type hIL-6) with serial dilutions of two to four independent preparations of mutant. The activity of the mutant, expressed as a percent of wild type hIL-6, was calculated as the ratio between the amount of wild type hIL-6 and the amount of the mutant under examination necessary to give half maximal stimulation.

Consider “S176R: mutant human interleukin 6 with arginine in position 176 in place of serine of wild interleukin 6 [Mutation S176R]”, for which the “hIL-6R binding (% of wt hIL-6)” value with soluble hIL6 receptor was 320 ± 87 % of wt hIL-6. Besides, in assay [1], the “ability to stimulate growth of hIL-6 dependent 7TD1 cells, with respect to the wild type” value is “significant increase in biological activity”. In addition, the “Biological activity (% of wt hIL-6)” value in assay [2] was 370±90 % of wt hIL-6.
